Columns and labels:
Type in all cases: in vivo, human
[1] = system: people who had fluid retention before menstruation; assay: Administration test of γ-tocopherol alone, VAS questionnaire; conditions: 360 mg/day γ-tocopherol, 7 days, 25 people, placebo-controlled double-blind
Method: (§1) Twenty-five people who had fluid retention before menstruation were subjected to randomly-assigned placebo-controlled double-blind tested group comparative study. […] An evaluation period is between the morning of the 6th day after the start of the continuous ingestion and the morning of the 8th day […]. Evaluation by questionnaires was conducted before every meal. An average value of variations from a start value of the evaluation was obtained to compare the tested group with the placebo group.
(§2) The evaluation by questionnaires was conducted by VAS (visual analog scale) and MDQ (menstrual distress questionnaire).
(§3) For VAS, the subjects indicated their symptoms about each questionnaire on a scale of “0 mm” (no symptom) to “100 mm” (the symptom is very strong/the symptom affects daily living), and an average value of variations from a start value of the evaluation was calculated. For MDQ, the subjects answered each questionnaire on a six-point scale of “0” (no symptom) to “5” (the symptom is very strong/the symptom affects daily living).

[2] = system: people who had fluid retention before menstruation; assay: Administration test of γ-tocopherol alone, MDQ questionnaire; conditions: 360 mg/day γ-tocopherol, 7 days, 25 people
Method: as §1, §2, §3

[3] = system: people who had any unpleasant symptom before menstruation; assay: Combined administration test of γ-tocopherol and equol, MDQ questionnaire; conditions: suggested by the results of Test Example 1 and Test Example 2; equol alone not administered

Cc1c(O)cc2c(c1C)O[C@](C)(CCC[C@H](C)CCC[C@H](C)CCCC(C)C)CC2 [γ-tocopherol]
VAS "annoyance or irritability" (mental unpleasant symptoms) as compared with a placebo group [1]: significant amelioration
VAS leg swelling (physical unpleasant symptoms) as compared with a placebo group [1]: significant amelioration
proportion of people who had decreased MDQ scores as compared with the placebo group, "change in behavior" [2]: 32.0%
proportion of people who had decreased MDQ scores as compared with the placebo group, item "concentration ability" [2]: 36.0%
proportion of people who had decreased MDQ scores as compared with the placebo group, item "fluid retention" [2]: 56.0%
proportion of people who had decreased MDQ scores as compared with the placebo group, item "negative emotion" [2]: 28.0%
proportion of people who had decreased MDQ scores as compared with the placebo group, item "pain" [2]: 44.0%

Oc1ccc(C2COc3cc(O)ccc3C2)cc1 (centres unmarked) [equol]
effects of equol alone on "pain", "negative emotion", "concentration ability" and "change in behavior" [3]: has effects
